Measurements published in PubChem BioAssay AID1963967 (Molecular Pharmacology Branch, DTP, NCI, 2024).

Tested on: 855422-203-R-J1-PDC spheroids with HUVEC/MSC, viability
Assay: Anticancer human tumor 855422-203-R-J1-PDC patient-derived bladder carcinoma cell line growth inhibition [PI3K]
Settings: for IC50: curve of first compound; for viability, T/C: stronger effect = lower value
Summary of the method: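 Combination activity was assessed by viability in multicellular tumor spheroids carrying HUVEC and MSC components. Agents were tested with PI3K inhibitors from a Cmax-based top dose (or 10 microM) downward in half-log increments.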

[1] = second compound 0.00316 µM, first compound 0.0316 µM
[2] = second compound 0.00316 µM, first compound 0.1 µM
[3] = second compound 0.00316 µM, first compound 0.316 µM
[4] = second compound 0.00316 µM, first compound 1 µM
[5] = second compound 0.00316 µM, first compound 3.16 µM
[6] = second compound 0.00316 µM, first compound 10 µM
[7] = second compound 0.01 µM, first compound 0.0316 µM
[8] = second compound 0.01 µM, first compound 0.1 µM
[9] = second compound 0.01 µM, first compound 0.316 µM
[10] = second compound 0.01 µM, first compound 1 µM
[11] = second compound 0.01 µM, first compound 3.16 µM
[12] = second compound 0.01 µM, first compound 10 µM
[13] = second compound 0.0316 µM, first compound 0.0316 µM
[14] = second compound 0.0316 µM, first compound 0.1 µM
[15] = second compound 0.0316 µM, first compound 0.316 µM
[16] = second compound 0.0316 µM, first compound 1 µM
[17] = second compound 0.0316 µM, first compound 3.16 µM
[18] = second compound 0.0316 µM, first compound 10 µM
[19] = second compound 0.1 µM, first compound 0.0316 µM
[20] = second compound 0.1 µM, first compound 0.1 µM
[21] = second compound 0.1 µM, first compound 0.316 µM
[22] = second compound 0.1 µM, first compound 1 µM
[23] = second compound 0.1 µM, first compound 3.16 µM
[24] = second compound 0.1 µM, first compound 10 µM
[25] = second compound 0.316 µM, first compound 0.0316 µM
[26] = second compound 0.316 µM, first compound 0.1 µM
[27] = second compound 0.316 µM, first compound 0.316 µM
[28] = second compound 0.316 µM, first compound 1 µM
[29] = second compound 0.316 µM, first compound 3.16 µM
[30] = second compound 0.316 µM, first compound 10 µM
[31] = second compound 1 µM, first compound 0.0316 µM
[32] = second compound 1 µM, first compound 0.1 µM
[33] = second compound 1 µM, first compound 0.316 µM
[34] = second compound 1 µM, first compound 1 µM
[35] = second compound 1 µM, first compound 3.16 µM
[36] = second compound 1 µM, first compound 10 µM
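Also: agents incubated with spheroids for one week before read-out.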
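For viability, T/C in this document: 100% = DMSO vehicle-treated control wells.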

CCCS(=O)(=O)Nc1ccc(F)c(C(=O)c2c[nH]c3ncc(-c4ccc(Cl)cc4)cc23)c1F + COc1c(OCCCN2CCOCC2)ccc2c3n(c(=NC(=O)c4cnc(N)nc4)nc12)CCN3
IC50 (second compound 0.00316 µM): 4.39 µM | IC50 (second compound 0.01 µM): 4.84 µM | IC50 (second compound 0.0316 µM): 3.06 µM | IC50 (second compound 0.1 µM): < 0.0316 µM | IC50 (second compound 0.316 µM): < 0.0316 µM | IC50 (second compound 1 µM): < 0.0316 µM | viability, T/C [1]: 97.6% | viability, T/C [2]: 83.8% | viability, T/C [3]: 87.2% | viability, T/C [4]: 82.5% | viability, T/C [5]: 71.3% | viability, T/C [6]: 0.07% | viability, T/C [7]: 105% | viability, T/C [8]: 89.5% | viability, T/C [9]: 83% | viability, T/C [10]: 90.6% | viability, T/C [11]: 78.9% | viability, T/C [12]: 0.31% | viability, T/C [13]: 68.2% | viability, T/C [14]: 75.1% | viability, T/C [15]: 78.6% | viability, T/C [16]: 67.1% | viability, T/C [17]: 49.7% | viability, T/C [18]: 0.93% | viability, T/C [19]: 34.5% | viability, T/C [20]: 35.3% | viability, T/C [21]: 34.1% | viability, T/C [22]: 32.4% | viability, T/C [23]: 23.9% | viability, T/C [24]: 1.58% | viability, T/C [25]: 11.9% | viability, T/C [26]: 11.4% | viability, T/C [27]: 11.9% | viability, T/C [28]: 11.8% | viability, T/C [29]: 8.59% | viability, T/C [30]: 0.86% | viability, T/C [31]: 4.83% | viability, T/C [32]: 3.64% | viability, T/C [33]: 4.81% | viability, T/C [34]: 6.51% | viability, T/C [35]: 3.75% | viability, T/C [36]: 2%

CNC(=O)c1ccc(N2C(=S)N(c3ccc(C#N)c(C(F)(F)F)c3)C(=O)C2(C)C)cc1F + COc1c(OCCCN2CCOCC2)ccc2c3n(c(=NC(=O)c4cnc(N)nc4)nc12)CCN3
IC50 (second compound 0.00316 µM): > 10 µM | IC50 (second compound 0.01 µM): > 10 µM | IC50 (second compound 0.0316 µM): > 10 µM | IC50 (second compound 0.1 µM): < 0.0316 µM | IC50 (second compound 0.316 µM): < 0.0316 µM | IC50 (second compound 1 µM): < 0.0316 µM | viability, T/C [1]: 94.3% | viability, T/C [2]: 79.5% | viability, T/C [3]: 90.7% | viability, T/C [4]: 83.1% | viability, T/C [5]: 71.5% | viability, T/C [6]: 66.5% | viability, T/C [7]: 74% | viability, T/C [8]: 85.1% | viability, T/C [9]: 74.5% | viability, T/C [10]: 76.1% | viability, T/C [11]: 81.4% | viability, T/C [12]: 68.5% | viability, T/C [13]: 63.4% | viability, T/C [14]: 69.3% | viability, T/C [15]: 70.8% | viability, T/C [16]: 61.2% | viability, T/C [17]: 62.4% | viability, T/C [18]: 58.2% | viability, T/C [19]: 30.2% | viability, T/C [20]: 32.3% | viability, T/C [21]: 30.2% | viability, T/C [22]: 32.9% | viability, T/C [23]: 34.5% | viability, T/C [24]: 29.4% | viability, T/C [25]: 11.5% | viability, T/C [26]: 10.8% | viability, T/C [27]: 8.16% | viability, T/C [28]: 12.7% | viability, T/C [29]: 9.19% | viability, T/C [30]: 10.1% | viability, T/C [31]: 4.1% | viability, T/C [32]: 4.74% | viability, T/C [33]: 4.6% | viability, T/C [34]: 4.66% | viability, T/C [35]: 5.91% | viability, T/C [36]: 4.28%
